Broadly, the IC50 is the concentration at which inhibition is half-maximal. Higher therefore signals a need for much substance.

Our source for the IC50 values is the Kinase Knowledgebase extract (Sharma et al. 2016).

For this experiment, the target named is EGFR (UniProt P00533).
Chain of EGFR (P00533 whole entry, looked up): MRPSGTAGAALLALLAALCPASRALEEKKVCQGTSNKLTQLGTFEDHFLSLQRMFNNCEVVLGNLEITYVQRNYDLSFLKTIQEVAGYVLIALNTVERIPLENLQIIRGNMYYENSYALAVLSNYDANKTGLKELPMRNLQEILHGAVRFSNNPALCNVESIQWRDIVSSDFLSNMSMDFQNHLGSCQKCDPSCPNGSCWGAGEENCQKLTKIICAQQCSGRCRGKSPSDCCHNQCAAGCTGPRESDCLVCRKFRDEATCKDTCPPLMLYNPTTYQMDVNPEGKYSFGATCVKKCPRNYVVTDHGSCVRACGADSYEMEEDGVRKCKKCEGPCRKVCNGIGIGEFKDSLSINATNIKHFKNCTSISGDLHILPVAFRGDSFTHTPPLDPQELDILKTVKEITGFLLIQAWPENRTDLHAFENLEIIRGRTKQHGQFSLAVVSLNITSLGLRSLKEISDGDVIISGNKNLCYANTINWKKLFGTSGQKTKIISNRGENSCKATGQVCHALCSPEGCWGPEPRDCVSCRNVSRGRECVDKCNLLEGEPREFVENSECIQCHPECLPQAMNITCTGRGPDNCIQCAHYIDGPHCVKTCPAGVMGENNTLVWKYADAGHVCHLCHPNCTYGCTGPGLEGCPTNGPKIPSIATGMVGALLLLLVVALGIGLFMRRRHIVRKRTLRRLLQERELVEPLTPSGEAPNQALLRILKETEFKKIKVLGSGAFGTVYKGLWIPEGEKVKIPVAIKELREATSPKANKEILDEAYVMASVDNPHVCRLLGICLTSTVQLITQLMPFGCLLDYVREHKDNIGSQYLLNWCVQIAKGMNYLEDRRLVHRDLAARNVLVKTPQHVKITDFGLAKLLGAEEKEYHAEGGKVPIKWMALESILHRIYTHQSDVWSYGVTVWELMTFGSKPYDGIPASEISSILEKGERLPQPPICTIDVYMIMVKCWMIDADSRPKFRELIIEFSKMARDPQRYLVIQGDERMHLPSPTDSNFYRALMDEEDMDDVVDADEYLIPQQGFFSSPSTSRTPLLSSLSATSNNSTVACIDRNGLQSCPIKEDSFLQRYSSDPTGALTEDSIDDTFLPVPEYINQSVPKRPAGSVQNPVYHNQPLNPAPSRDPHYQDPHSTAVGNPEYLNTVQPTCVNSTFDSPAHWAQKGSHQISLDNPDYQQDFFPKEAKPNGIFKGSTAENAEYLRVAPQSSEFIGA
With `c1ccc(CNc2ncnc3ccccc23)cc1`, the 50% inhibitory concentration (IC50) amounted to 320 nM.
`CC[C@@H](Nc1ncnc2cc(OC)c(OC)cc12)c1ccccc1` returned an IC50 of 234 nM.
`COc1cc2ncnc(NCc3cccc4ccccc34)c2cc1OC` had an IC50 of 148 nM.
The result for `COc1cc2ncnc(NC3CCc4ccccc43)c2cc1OC` (stereo not given) reads 1000 nM.
The result for `COc1ccc2c(N[C@H](C)c3ccccc3)ncnc2c1` reads 29 nM.
The value for `COc1ccc2c(N[C@@H](C)c3ccccc3)ncnc2c1` was 4000 nM; that for `COc1cc2ncnc(N[C@H](C)c3ccccc3)c2cc1OC` was 1.6 nM; that for `COc1cc2ncnc(N[C@@H](C)c3ccccc3)c2cc1OC` was 3760 nM.
`COc1ccc2c(Nc3ccccc3)ncnc2c1` registered an IC50 of 120 nM.
The value for `COc1cc2ncnc(NCc3ccccc3)c2cc1OC` was 10 nM; that for `COc1cc2ncnc(N[C@H](C)c3cccc4ccccc34)c2cc1OC` was 139 nM.
The value for `C[C@@H](Nc1ncnc2ccccc12)c1ccccc1` was 86 nM; that for `C[C@H](Nc1ncnc2ccccc12)c1ccccc1` was greater than 10000 nM; that for `COc1ccc2c(NCc3ccccc3)ncnc2c1` was 58 nM.
The result for `c1ccc(CCNc2ncnc3ccccc23)cc1` reads 4100 nM.
